Results as given in patent publication US20080255206A1, “Rxr Agonists and Antagonists, Alone or in Combination with Ppar Ligands, in the Treatment of Metabolic and Cardiovascular Diseases” (priority 2005, published 2008).
Each block holds one compound with its values, some of them ahead of it.

Legend:
[1] = tested on: db/db mice; assay: Investigation with db/db mice (blood glucose and lipids); assay type: in vivo, mouse; conditions: for Glucose Diff. D o − D 12 / HDL-cholesterol Diff. D o − D 12 / Total cholesterol Diff. D o − D 12 / Triglycerides Diff. D o − D 12: change day 0 to day 12; for Glucose D o / HDL-cholesterol D o / Total cholesterol D o / Triglycerides D o: day 0; for HDL-cholesterol D 12 / Total cholesterol D 12 / Triglycerides D 12 / Glucose D 12: day 12; for Glucose D-4 / HDL-cholesterol D-4 / Total cholesterol D-4 / Triglycerides D-4: day −4
Procedure: The following compounds are investigated and compared to placebo (vehicle control).
The mentioned 3 compounds are tested in db/db mice during a time when diabetes is in a rapid developing stage. […] Each dosage group and the vehicle group comprise 7 mice. The suspensions used are prepared with peroxide free arachis oil as vehicle. Blood samples are collected by retro-orbital bleeding at days −4, 0 and 12. The blood levels of glucose, triglycerides, total cholesterol, and HDL-cholesterol are determined.
For evaluation of efficacy, the difference between the values of glucose, triglycerides, total cholesterol and HDL-cholesterol changing from day 0 to day 12 is determined and expressed in %. […] Overall evaluation consists in determining the efficacy of the compounds by calculating the whole extent of the effect expressed in %. […] This value is considered as a valuable indicator for the efficacy of the investigated compounds administered in a tolerated dose.

[2] = molecular target: T1, RXRα (Homo sapiens, UniProt P19793); assay: Retinoid activation assay, RXRα (Schneider SL-3 cells, luciferase reporter); assay type: cell-based; conditions: read-out: Activation EC50 RXR α
T1 sequence (P19793 1-462): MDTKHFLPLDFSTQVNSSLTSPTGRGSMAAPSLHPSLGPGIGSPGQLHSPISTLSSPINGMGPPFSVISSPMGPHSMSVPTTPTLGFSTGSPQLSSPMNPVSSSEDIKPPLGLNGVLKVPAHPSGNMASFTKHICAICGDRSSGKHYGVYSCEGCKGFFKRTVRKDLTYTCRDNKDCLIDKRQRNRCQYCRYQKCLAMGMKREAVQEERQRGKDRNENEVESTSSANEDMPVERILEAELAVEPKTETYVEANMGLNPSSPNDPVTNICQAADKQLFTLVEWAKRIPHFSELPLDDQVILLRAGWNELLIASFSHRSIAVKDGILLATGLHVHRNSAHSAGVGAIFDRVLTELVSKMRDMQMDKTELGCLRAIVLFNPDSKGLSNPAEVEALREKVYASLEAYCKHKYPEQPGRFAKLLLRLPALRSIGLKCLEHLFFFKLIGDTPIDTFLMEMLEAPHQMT
Procedure: Full length RXR cDNA is used for transfection. As reporter system, the luciferase gene is used in a construct with three copies of a RXR response element from rat CRBP gene, (formerly RARE from betaRAR gene), fused to alcoholdehydrogenase gene promoter in the plasmid pGL2-basic. Schneider SL-3 cells from Drosophila are transiently transfected 3-4 h before the experiment by the Ca-phosphate-DNA coprecipitation method. […] At the end of the incubation, the cell supernatants are assayed for luciferase activity. Results are given as EC50 (nM), the concentration leading to half-maximal activation.

[3] = molecular target: T1, RXRα; assay: Retinoid binding assay, RXRα; set-up: made in house; host or cells: E. coli; conditions: [3H] 9-cis retinoic acid 20 nM; read-out: Binding Affinity IC50 RXR α
Description: (§1) The DEF domains of RAR's and the full length RXR's, expressed in E.coli, are used to measure competitive retinoid binding. […] 9-cis retinoic acid (for RXR's), respectively. […] Separation of bound from free radioactivity is achieved by charcoal/dextran (RAR's) or by desalting columns (RXR's). […] Retinoid Activation Assays

[4] = molecular target: T2, PPARγ/RXRα Heterodimer (Homo sapiens, UniProt P19793); assay: PPARγ/RXRα heterodimer activation (transactivation) assay; assay type: cell-based
T2 construct: co-transfected with plasmids expressing the full length RXR heteropartner receptor; expressed in transfected cells
T2 sequence (P19793 1-462): T1 sequence (P19793 1-462)
T2 sequence (P37231 1-505 partner): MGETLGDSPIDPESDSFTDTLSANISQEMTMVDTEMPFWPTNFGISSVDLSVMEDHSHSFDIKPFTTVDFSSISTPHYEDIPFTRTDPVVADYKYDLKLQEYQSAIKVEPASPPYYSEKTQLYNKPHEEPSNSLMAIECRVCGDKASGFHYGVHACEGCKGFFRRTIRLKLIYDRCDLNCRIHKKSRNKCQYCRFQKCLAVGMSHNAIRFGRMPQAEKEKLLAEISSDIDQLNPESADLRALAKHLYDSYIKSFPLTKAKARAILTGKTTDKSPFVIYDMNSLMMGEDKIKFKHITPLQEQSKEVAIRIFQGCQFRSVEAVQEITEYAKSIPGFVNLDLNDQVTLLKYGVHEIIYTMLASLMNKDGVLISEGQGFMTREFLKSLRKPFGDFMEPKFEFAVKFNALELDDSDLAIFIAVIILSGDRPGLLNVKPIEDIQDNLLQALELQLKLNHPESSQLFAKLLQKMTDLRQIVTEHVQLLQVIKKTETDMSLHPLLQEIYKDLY
Description: (§2) Nuclear hormone receptor (NHR) ligand dependent transcriptional transactivation assay.
Heterodimer reporter assays are potentially more important selection criteria for synthetic agonistic NHR ligands as they embody a more natural situation. Basically plasmids expressing the recombinant full length NHR are co-transfected with plasmids expressing the full length RXR heteropartner receptor and a reporter plasmid containing several copies of the natural responsive elements for the respective NHR driving the luciferase reporter gene.

[5] = molecular target: T3, RXRγ (Homo sapiens, UniProt P48443); assay: Retinoid binding assay, RXRγ; set-up: made in house; host or cells: E. coli; conditions: [3H] 9-cis retinoic acid 20 nM; read-out: Binding Affinity IC50 RXR γ
T3 sequence (P48443 1-463): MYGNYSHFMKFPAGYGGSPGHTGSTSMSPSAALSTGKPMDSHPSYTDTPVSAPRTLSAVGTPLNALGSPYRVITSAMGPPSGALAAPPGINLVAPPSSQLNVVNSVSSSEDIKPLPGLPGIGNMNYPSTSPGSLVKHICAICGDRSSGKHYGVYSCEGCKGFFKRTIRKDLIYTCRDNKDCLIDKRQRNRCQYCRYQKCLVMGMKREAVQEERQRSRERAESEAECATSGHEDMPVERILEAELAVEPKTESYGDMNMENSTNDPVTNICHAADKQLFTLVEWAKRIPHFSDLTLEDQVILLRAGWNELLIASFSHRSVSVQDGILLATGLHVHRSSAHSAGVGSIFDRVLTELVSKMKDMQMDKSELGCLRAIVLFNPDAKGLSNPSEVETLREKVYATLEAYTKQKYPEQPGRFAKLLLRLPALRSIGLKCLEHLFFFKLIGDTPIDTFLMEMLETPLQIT
Description: as §1

[6] = molecular target: T4, RXRα Homodimer (Homo sapiens, UniProt P19793); assay: RXRα homodimer activation (transactivation) assay; assay type: cell-based
T4 construct: expressed in transfected cells; host or cells: mammalian cells (BHK21, CV1, etc)
T4 sequence (P19793 1-462): T1 sequence (P19793 1-462)
Description: as §2
This secondary in vitro functional assay to characterize hits from the primary ligand binding screens is a GAL4-LBD transactivation assay. The Gal4-LBD protein consists of an in frame fusion of the transcription factor galactose 4 DNA binding domain from S.cerevisiae with the ligand binding domain (LBD) of a particular NHR. Briefly, a plasmid construct expressing the recombinant chimeric receptor is co-transfected into mammalian cells (BHK21, CV1, etc) with a luciferase reporter plasmid containing several copies in tandem of the GAL4 binding sites (promoter recognition elements) upstream from the minimal promoter driving the luciferase gene. The transfected cells are treated with compounds for 12-24 hours, lysates are produced and assayed for luciferase activity and normalized to internal standards such as GH, growth hormone or SEAP, secreted alkaline phosphatase. Ligand binding stabilizes the LBD conformation that recruits endogenous co-factors that mediate eventually the increased transcriptional activity of the luciferase reporter gene. By comparing the activation profile of a reference ligand or a natural ligand, the EC50 values for agonistic activity of a particular ligand can be measured. The extent of activation that can be measured is indicative of a partial, respectively full agonistic activity of a ligand. […]

[7] = 30 mg/kg/day group versus vehicle group

SMILES: C=C(c1ccc(C(=O)O)cc1)c1cc2c(cc1C)C(C)(C)CCC2(C)C [Compound 2, 4-[1-(5,6,7,8-tetrahydro-3,5,5,8,8-pentamethyl-2-naphthalenyl)ethenyl]benzoic acid, reference compound]
Glucose Diff. D o − D 12 ([1]; 0.3 mg/kg/day i.p.): +54.0%
HDL-cholesterol Diff. D o − D 12 ([1]; 0.3 mg/kg/day i.p.): −11.8%
Total cholesterol Diff. D o − D 12 ([1]; 0.3 mg/kg/day i.p.): −12.3%
Triglycerides Diff. D o − D 12 ([1]; 0.3 mg/kg/day i.p.): −4.0%
Glucose D o ([1]; 0.3 mg/kg/day i.p.): 189 mg/dL
HDL-cholesterol D o ([1]; 0.3 mg/kg/day i.p.): 2.71 mmol/L
Total cholesterol D o ([1]; 0.3 mg/kg/day i.p.): 3.99 mmol/L
Triglycerides D o ([1]; 0.3 mg/kg/day i.p.): 1.98 mmol/L
HDL-cholesterol D 12 ([1]; 0.3 mg/kg/day i.p.): 2.39 mmol/L
Total cholesterol D 12 ([1]; 0.3 mg/kg/day i.p.): 3.50 mmol/L
Triglycerides D 12 ([1]; 0.3 mg/kg/day i.p.): 1.90 mmol/L
Glucose D-4 ([1]; 0.3 mg/kg/day i.p.): 144 mg/dL
HDL-cholesterol D-4 ([1]; 0.3 mg/kg/day i.p.): 2.48 mmol/L
Total cholesterol D-4 ([1]; 0.3 mg/kg/day i.p.): 3.96 mmol/L
Triglycerides D-4 ([1]; 0.3 mg/kg/day i.p.): 1.65 mmol/L
Glucose levels (in words) ([1]; 3 mg/kg/day): no significant change
HDL-cholesterol levels (in words) ([1]; 3 mg/kg/day): not influenced
Triglyceride levels (in words) ([1]; 3 mg/kg/day): hardly influenced
Glucose Diff. D o − D 12 ([1]; 3.0 mg/kg/day i.p.): +30.4%
HDL-cholesterol Diff. D o − D 12 ([1]; 3.0 mg/kg/day i.p.): −8.3%
Total cholesterol Diff. D o − D 12 ([1]; 3.0 mg/kg/day i.p.): −25.4%
Triglycerides Diff. D o − D 12 ([1]; 3.0 mg/kg/day i.p.): −24.8%
Glucose D o ([1]; 3.0 mg/kg/day i.p.): 175 mg/dL
HDL-cholesterol D o ([1]; 3.0 mg/kg/day i.p.): 2.77 mmol/L
Total cholesterol D o ([1]; 3.0 mg/kg/day i.p.): 4.65 mmol/L
Triglycerides D o ([1]; 3.0 mg/kg/day i.p.): 2.01 mmol/L
Glucose D 12 ([1]; 3.0 mg/kg/day i.p.): 229 mg/dL
HDL-cholesterol D 12 ([1]; 3.0 mg/kg/day i.p.): 2.54 mmol/L
Total cholesterol D 12 ([1]; 3.0 mg/kg/day i.p.): 3.47 mmol/L
Triglycerides D 12 ([1]; 3.0 mg/kg/day i.p.): 1.51 mmol/L
Glucose D-4 ([1]; 3.0 mg/kg/day i.p.): 169 mg/dL
HDL-cholesterol D-4 ([1]; 3.0 mg/kg/day i.p.): 2.66 mmol/L
Total cholesterol D-4 ([1]; 3.0 mg/kg/day i.p.): 4.48 mmol/L
Triglycerides D-4 ([1]; 3.0 mg/kg/day i.p.): 1.97 mmol/L
Glucose levels (in words) ([1]; 30 mg/kg/day): only hardly influenced
HDL-cholesterol levels (in words) ([1]; 30 mg/kg/day): decreased
Total cholesterol levels (in words) ([1]; 30 mg/kg/day): slightly lower
Triglyceride levels (in words) ([1]; 30 mg/kg/day): even raises triglyceride levels
Overall extent of the effect on blood levels of Glucose [1, 7]: +5.6%
Overall extent of the effect on blood levels of HDL-cholesterol [1, 7]: −17.8%
Overall extent of the effect on blood levels of Total cholesterol [1, 7]: −13.0%
Overall extent of the effect on blood levels of Triglycerides [1, 7]: +18.3%
Glucose Diff. D o − D 12 ([1]; 30 mg/kg/day i.p.): +54.8%
HDL-cholesterol Diff. D o − D 12 ([1]; 30 mg/kg/day i.p.): −21.6%
Total cholesterol Diff. D o − D 12 ([1]; 30 mg/kg/day i.p.): −21.8%
Triglycerides Diff. D o − D 12 ([1]; 30 mg/kg/day i.p.): +40.4%
Glucose D o ([1]; 30 mg/kg/day i.p.): 155 mg/dL
HDL-cholesterol D o ([1]; 30 mg/kg/day i.p.): 3.10 mmol/L
Total cholesterol D o ([1]; 30 mg/kg/day i.p.): 4.31 mmol/L
Triglycerides D o ([1]; 30 mg/kg/day i.p.): 1.61 mmol/L
Glucose D 12 ([1]; 30 mg/kg/day i.p.): 240 mg/dL
HDL-cholesterol D 12 ([1]; 30 mg/kg/day i.p.): 2.43 mmol/L
Total cholesterol D 12 ([1]; 30 mg/kg/day i.p.): 3.37 mmol/L
Triglycerides D 12 ([1]; 30 mg/kg/day i.p.): 2.26 mmol/L
Glucose D-4 ([1]; 30 mg/kg/day i.p.): 128 mg/dL
HDL-cholesterol D-4 ([1]; 30 mg/kg/day i.p.): 2.74 mmol/L
Total cholesterol D-4 ([1]; 30 mg/kg/day i.p.): 4.24 mmol/L
Triglycerides D-4 ([1]; 30 mg/kg/day i.p.): 1.75 mmol/L

EC50 [2]: ≥ 10 µM
IC50 [3]: 0.009 µM
EC50 [4]: > 10 µM
IC50 [5]: 0.019 µM
EC50 [6]: > 10 µM
SMILES: CCCCCCCOc1c(\C(C)=C/C=C/C(C)=C/C(=O)O)cc(C(C)C)cc1C(C)C [Compound 19, (2E,4E,6Z)-7-(2-Heptyloxy-3,5-diisopropyl-phenyl)-3-methyl-octa-2,4,6-trienoic acid]
